{
  "source": "patent US20120208776A1",
  "about": "(priority 2002, published 2012)",
  "key": {"MDA-MB-453 cells [1]": {"test_system": "MDA-MB-453 cells", "assay": "Cell-cycle analysis by DNA flow cytometry", "assay_type": "cell-based, human", "conditions": "48 hrs", "procedure": "(§1) Synchrony: To synchronize the cells, 3×10^5 cells were plated onto 10 cm dishes and grown for 2 days in DMEM supplemented with 10% fetal bovine serum.\n(§2) After incubation for 1-3 days, the supernatant was collected, and the cells were trypsinized, collected, and washed with phosphate buffered saline (PBS) containing 5% FBS. Cell pellets were re-suspended in 1 ml of PBS plus 5% FBS. Thereafter, 5 ml of 70% ethanol were added drop-wise, while vortexing the tube, and the mixture was stored at 4° C. Cells were centrifuged, washed with PBS plus 5% FBS, and re-suspended in 400 μl of propidium iodide (0.1 mg/ml) (Sigma Chemical Co.). 400 μl (2 mg/ml) of RNase (Sigma Chemical Co.) were added, and the cells were incubated in the dark at room temperature for 30 min."}, "MCF7 cells [2]": {"test_system": "MCF7 cells", "assay": "Cell proliferation, cell count (Coulter Counter)", "assay_type": "cell-based, human", "conditions": "for IC50: MCF7 cells, 96 h"}, "MCF7 cells [3]": {"test_system": "MCF7 cells", "assay": "Cell-cycle analysis by DNA flow cytometry", "assay_type": "cell-based, human", "conditions": "about 40 μg/ml", "procedure": "as §1, §2"}, "MDA-MB-453 cells [4]": {"test_system": "MDA-MB-453 cells", "assay": "Cell proliferation, cell count (Coulter Counter)", "conditions": "MDA-MB-453 (FIG. 10)", "description": "For the cell count assay, breast cancer cells were seeded, in triplicate, at 2×10^4 cells per well, in 24- or 96-well plates.\n(§3) For the Coulter counter assay, cells were seeded at 2×10^4 cells per well in 24 well plates (0.875 cm diameter) as described previously. […] Control and treated cells were compared using the student's t-test (p<0.05). For cell cycle analysis the cells were plated (3×10^5) onto 6 cm dishes and allowed to attach for 24 hours. […] After 24 hours the cells were analyzed by DNA flow cytometry, as described previously."}, "MDA-MB-453 cells [5]": {"test_system": "MDA-MB-453 cells", "assay": "Combination with chemotherapy agents, cell count, combination index (CI)", "assay_type": "cell-based, human"}, "Na^+-K^+-ATPase": {"test_system": "Na^+-K^+-ATPase", "assay": "Enzymatic assay of adenosine 5′-triphosphatase", "assay_type": "biochemical", "conditions": "20 μM", "procedure": "Enzymatic assay of adenosine 5′-triphosphatase. The enzymatic assay of ATPase (adenosine 5′-triphosphatase, EC 3.6.1.3) followed the Sigma Prod. […] [P] was determined by the Taussky-Shorr method."}, "MDA-MB-453 cells [6]": {"test_system": "MDA-MB-453 cells", "assay": "Combination of agents, MTT assay, combination index", "procedure": "Calculating the Combination Index. To determine the Combination Index (CI), 1) the Na^+-K^+-ATPase enzyme or 2) MDA-MB-453 cells were exposed to all combinations of 3, 4 or 5 concentrations of each of the agents tested and a solvent control. […] The results of the enzymatic assay of ATPase or MTT assay were analyzed for possible synergistic effects using the median effect principle. Variable ratios of drugs were employed and mutually exclusive equations were assumed.\nCalculating the Combination Index.\nThe simvastatin was obtained from Sigma of St. Louis, Mo. The concentrations tested in the present example were 0, 0.2, 2, 5, and 20 μg/ml actein and 0, 0.8, 4, 20 and 40 μg/ml simvastatin."}, "[7]": {"molecular_target": "NTPase/helicase of hepatitis C virus (Hepatitis C virus genotype 1a, UniProt P27958)", "sequence (P27958 1203-1364)": "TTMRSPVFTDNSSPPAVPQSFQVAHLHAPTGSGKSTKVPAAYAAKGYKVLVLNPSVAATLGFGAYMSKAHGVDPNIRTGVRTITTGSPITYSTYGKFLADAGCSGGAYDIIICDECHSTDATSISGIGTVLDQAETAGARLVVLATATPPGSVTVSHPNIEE", "conditions": "competitive inhibition of ATP binding; cited from earlier work"}, "MDA-MB-453 cells [8]": {"test_system": "MDA-MB-453 cells", "assay": "MTT assay, 96 hours", "assay_type": "cell-based, human", "conditions": "Homo sapiens, MTT, 96 h, read-out: IC50", "description": "as §3"}, "[9]": {"conditions": "value in parentheses, read-out: IC50"}},
  "note": "Like-named read-outs stand apart in the source and are kept apart here.",
  "data": [
    {"compound": "25-acetyl-7,8-didehydrocimigenol 3-O-β-D-xylopyranoside", "values": [
      {"measurement": "solubility", "setting": "Solubility (observation)", "result": "sufficiently soluble"}
    ]},
    {"compound": "O=c1[nH]cc(F)c(=O)[nH]1", "note": "[5-FU, 5-fluorouracil, reference compound]", "values": [
      {"measurement": "G1 (%)", "setting": "MDA-MB-453 cells [1]; (c) 5-FU 0.02 μg/mL", "result": 28.9, "unit": "%"},
      {"measurement": "G2/M (%)", "setting": "MDA-MB-453 cells [1]; (c) 5-FU 0.02 μg/mL", "result": 20.3, "unit": "%"},
      {"measurement": "S (%)", "setting": "MDA-MB-453 cells [1]; (c) 5-FU 0.02 μg/mL", "result": 47.6, "unit": "%"},
      {"measurement": "Sub G1 (%)", "setting": "MDA-MB-453 cells [1]; (c) 5-FU 0.02 μg/mL", "result": "3.", "unit": "%"}
    ]},
    {"compound": "CC(=O)O[C@@H]1C[C@@]23C[C@@]24CC[C@H](O[C@@H]2OC[C@@H](O)[C@H](O)[C@H]2O)C(C)(C)[C@@H]4CC[C@H]3[C@]2(C)C[C@@H]3O[C@@]4(C[C@@H](C)[C@@H]3[C@@]12C)OC[C@@]1(C)O[C@@H]41", "note": "[23-epi-26-deoxyactein]", "values": [
      {"measurement": "IC50", "setting": "MCF7 cells [2]", "result": 21, "unit": "µg/mL"},
      {"measurement": "IC50", "setting": "MCF7 cells [2]; [9]", "result": 32, "unit": "µM"},
      {"measurement": "cell-cycle arrest", "setting": "MCF7 cells [3]", "result": "induced cell-cycle arrest at G1"}
    ]},
    {"compound": "C[C@@H]1C[C@@H]2O[C@@]3(O[C@@H]2C(C)(C)O)[C@H](O)[C@@]2(C)[C@@H]4CC[C@H]5C(C)(C)[C@@H](O)CC[C@@]56C[C@@]46CC[C@]2(C)[C@@H]13", "note": "[Cimigenol, cimigenol]", "values": [
      {"measurement": "effect on the growth of human breast cancer cells", "setting": "MDA-MB-453 cells [4]", "result": "less active than cimigenol glycoside"}
    ]},
    {"compound": "COc1cccc2c1C(=O)c1c(O)c3c(c(O)c1C2=O)C[C@@](O)(C(=O)CO)C[C@@H]3O[C@H]1C[C@H](N)[C@H](O)[C@H](C)O1", "note": "[Doxorubicin, doxorubicin, reference compound]", "values": [
      {"measurement": "G1 (%)", "setting": "MDA-MB-453 cells [1]; (c) Doxorubicin 0.1 μg/mL", "result": 30.1, "unit": "%"},
      {"measurement": "G2/M (%)", "setting": "MDA-MB-453 cells [1]; (c) Doxorubicin 0.1 μg/mL", "result": 61.7, "unit": "%"},
      {"measurement": "S (%)", "setting": "MDA-MB-453 cells [1]; (c) Doxorubicin 0.1 μg/mL", "result": 5.6, "unit": "%"},
      {"measurement": "Sub G1 (%)", "setting": "MDA-MB-453 cells [1]; (c) Doxorubicin 0.1 μg/mL", "result": 2.5, "unit": "%"}
    ]},
    {"compound": "CC(=O)O[C@@H]1C[C@@]23C[C@@]24CC[C@H](O[C@@H]2OC[C@@H](O)[C@H](O)[C@H]2O)C(C)(C)[C@@H]4CC=C3[C@]2(C)C[C@@H]3O[C@@]4(O)[C@H](OC(C)(C)[C@H]4O)[C@@H](C)[C@@H]3[C@@]12C", "note": "[cimiracemoside A]", "values": [
      {"measurement": "IC50", "setting": "MCF7 cells [2]", "result": 41, "unit": "µg/mL"},
      {"measurement": "IC50", "setting": "MCF7 cells [2]; [9]", "result": 61, "unit": "µM"},
      {"measurement": "cell-cycle arrest", "setting": "MCF7 cells [3]", "result": "induced cell-cycle arrest at G1"}
    ]},
    {"compound": "COc1cc(/C=C/C(=O)O)ccc1O", "note": "[ferulic, ferulic acid]", "values": [
      {"measurement": "effect on the growth of MCF7 cells", "setting": "MCF7 cells [2]", "result": "active in suppressing the growth"}
    ]},
    {"compound": "COc1ccc(/C=C/C(=O)O)cc1O", "note": "[isoferulic, isoferulic acid]", "values": [
      {"measurement": "effect on the growth of MCF7 cells", "setting": "MCF7 cells [2]", "result": "active in suppressing the growth"}
    ]},
    {"compound": "CC(=O)O[C@H]1C(=O)[C@@]2(C)[C@H]([C@H](OC(=O)c3ccccc3)[C@]3(O)C[C@H](OC(=O)[C@H](O)[C@@H](NC(=O)c4ccccc4)c4ccccc4)C(C)=C1C3(C)C)[C@]1(OC(C)=O)CO[C@@H]1C[C@@H]2O", "note": "[paclitaxel, reference compound]", "values": [
      {"measurement": "number of viable cells, average", "setting": "MDA-MB-453 cells [5]; tax 1", "result": 118624},
      {"measurement": "number of viable cells, average", "setting": "MDA-MB-453 cells [5]; tax 4", "result": 37060.67},
      {"measurement": "number of viable cells, average", "setting": "MDA-MB-453 cells [5]; tax .25 (nM)", "result": 198416.3},
      {"measurement": "G1 (%)", "setting": "MDA-MB-453 cells [1]; (b) Taxol 1 nM", "result": 71.0, "unit": "%"},
      {"measurement": "G2/M (%)", "setting": "MDA-MB-453 cells [1]; (b) Taxol 1 nM", "result": 17.0, "unit": "%"},
      {"measurement": "S (%)", "setting": "MDA-MB-453 cells [1]; (b) Taxol 1 nM", "result": 10.8, "unit": "%"},
      {"measurement": "Sub G1 (%)", "setting": "MDA-MB-453 cells [1]; (b) Taxol 1 nM", "result": 1.0, "unit": "%"},
      {"measurement": "percent inhibition of in vitro Na^+-K^+-ATPase activity", "setting": "Na^+-K^+-ATPase", "result": 21.7, "unit": "%"},
      {"measurement": "cell survival", "setting": "MDA-MB-453 cells [6]; paclitaxel 1 nM alone", "result": 63.2, "unit": "%"},
      {"measurement": "IC50", "setting": "[7]", "result": "~16", "unit": "µM"}
    ]},
    {"compound": "CCC(C)(C)C(=O)O[C@H]1C[C@@H](C)C=C2C=C[C@H](C)[C@H](CC[C@@H]3C[C@@H](O)CC(=O)O3)[C@H]21", "note": "[simvastatin]", "values": [
      {"measurement": "IC50", "setting": "MDA-MB-453 cells [8]", "result": 21.5, "unit": "µM"},
      {"measurement": "viability at 20 µg/mL", "setting": "MDA-MB-453 cells [6]; Homo sapiens, MDA-MB-453, read-out: percent viable cells", "result": 83.1, "unit": "%"},
      {"measurement": "cell survival", "setting": "MDA-MB-453 cells [6]; simvastatin 40 ug/ml alone", "result": 58.2, "unit": "%"}
    ]},
    {"compound": "cimifugoside", "values": [
      {"measurement": "IC50", "setting": "MCF7 cells [2]", "result": 22, "unit": "µg/mL"},
      {"measurement": "IC50", "setting": "MCF7 cells [2]; [9]", "result": 36, "unit": "µM"}
    ]}
  ]
}
